Assay results reported in the supplement of paper PMC10307832.

Tests used:
Experiment in all cases: relative viability (nuclei count vs DMSO), 5 days (fraction); higher = more cells survive
CAL-12T = tested on: CAL-12T
Summary of the method: (§1)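 Dosing by pin tool came one day after lung cancer cell lines were seeded in 1536-well plates, using either one drug or a fixed anchor-drug dose plus five library-drug doses (not always all listed) in √10 steps. After 5 days, nuclei were counted on 4× images. Relative viability is treated-well nuclei count divided by vehicle-well nuclei count, and values are medians of duplicate plates.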

NCI-H661 = tested on: NCI-H661
Summary of the method: as §1

NCI-H2009 = tested on: NCI-H2009
Summary of the method: as §1

EKVX = tested on: EKVX
Summary of the method: as §1

NCI-H727 = tested on: NCI-H727
Summary of the method: as §1

ABC-1 = tested on: ABC-1
Summary of the method: as §1

LU99A = tested on: LU99A
Summary of the method: as §1

SW 900 = tested on: SW 900
Summary of the method: as §1

201T = tested on: 201T
Summary of the method: as §1

NCI-H838 = tested on: NCI-H838
Summary of the method: as §1

NCI-H1650 = tested on: NCI-H1650
Summary of the method: as §1

COR-L 105 = tested on: COR-L 105
Summary of the method: as §1

C=C1C(=O)O[C@@H](CCCCCCCC)[C@@H]1C(=O)O [C-75] + CCNC(=O)c1noc(-c2cc(C(C)C)c(O)cc2O)c1-c1ccc(CN2CCOCC2)cc1 [Luminespib] (partner 0.01 µM)
relative viability (CAL-12T; first compound 2.53 µM): 0.405
relative viability (CAL-12T; first compound 8 µM): 0.376
relative viability (NCI-H661; first compound 0.08 µM): 0.946
relative viability (NCI-H661; first compound 0.253 µM): 0.905
relative viability (NCI-H661; first compound 0.8 µM): 0.899
relative viability (NCI-H661; first compound 2.53 µM): 0.869
relative viability (NCI-H661; first compound 8 µM): 0.84
relative viability (NCI-H2009; first compound 0.08 µM): 1.02
relative viability (NCI-H2009; first compound 0.253 µM): 1.05
relative viability (NCI-H2009; first compound 0.8 µM): 1
relative viability (NCI-H2009; first compound 2.53 µM): 0.999
relative viability (NCI-H2009; first compound 8 µM): 0.793
relative viability (EKVX; first compound 0.08 µM): 0.867
relative viability (EKVX; first compound 0.253 µM): 0.984
relative viability (EKVX; first compound 0.8 µM): 0.788
relative viability (EKVX; first compound 8 µM): 0.891
relative viability (NCI-H727; first compound 0.08 µM): 0.371
relative viability (NCI-H727; first compound 0.253 µM): 0.358
relative viability (NCI-H727; first compound 0.8 µM): 0.312
relative viability (NCI-H727; first compound 8 µM): 0.484
relative viability (ABC-1; first compound 0.253 µM): 0.389
relative viability (ABC-1; first compound 0.8 µM): 0.51
relative viability (ABC-1; first compound 2.53 µM): 0.364
relative viability (ABC-1; first compound 8 µM): 0.378
relative viability (LU99A; first compound 0.08 µM): 0.209
relative viability (LU99A; first compound 0.253 µM): 0.297
relative viability (LU99A; first compound 0.8 µM): 0.251
relative viability (LU99A; first compound 2.53 µM): 0.252
relative viability (LU99A; first compound 8 µM): 0.286
relative viability (SW 900; first compound 0.08 µM): 0.169
relative viability (SW 900; first compound 0.253 µM): 0.191
relative viability (SW 900; first compound 0.8 µM): 0.163
relative viability (SW 900; first compound 2.53 µM): 0.175
relative viability (SW 900; first compound 8 µM): 0.206
relative viability (201T; first compound 0.08 µM): 1.07
relative viability (201T; first compound 0.253 µM): 1.08
relative viability (201T; first compound 0.8 µM): 1.07
relative viability (201T; first compound 2.53 µM): 1.04
relative viability (201T; first compound 8 µM): 1.06
relative viability (NCI-H838; first compound 0.08 µM): 0.325
relative viability (NCI-H838; first compound 0.8 µM): 0.296
relative viability (NCI-H838; first compound 2.53 µM): 0.286
relative viability (NCI-H838; first compound 8 µM): 0.238
relative viability (NCI-H1650; first compound 0.08 µM): 0.215
relative viability (NCI-H1650; first compound 0.253 µM): 0.194
relative viability (NCI-H1650; first compound 2.53 µM): 0.141
relative viability (NCI-H1650; first compound 8 µM): 0.211
relative viability (COR-L 105; first compound 0.08 µM): 0.688
relative viability (COR-L 105; first compound 0.253 µM): 0.584
relative viability (COR-L 105; first compound 0.8 µM): 0.817
relative viability (COR-L 105; first compound 2.53 µM): 0.815
relative viability (COR-L 105; first compound 8 µM): 0.638
